# Measurements taken from patent US5661139A, “Bis-(2-aryl) hydrazones” (Alteon Inc., priority 1995, dated 1997).
# System: glycated bovine serum albumin (AGE-BSA) cross-linking to rat tail tendon collagen
# Assay: not given
# Conditions: 4 h, pH 7.4
row,IC50,Compound
1,11.5 mM,CC(C=NNc1ccc(C(=O)O)cc1)=NNc1ccc(C(=O)O)cc1 [Methyl Glyoxal Bis-(4-Hydrazinobenzoic Acid) Hydrazone]
2,0.04 mM,CC(C=NNc1ccccc1C(=O)O)=NNc1ccccc1C(=O)O [Methylglyoxal Bis-(2-Hydrazinobenzoic Acid) Hydrazone]

# System: not listed separately
# Assay: Inhibition of cross-linking of N-acetyl glycyl-lysine methyl ester in the presence of ribose (fluorescence)
# Assay type: biochemical
# Conditions: 0.5M sodium phosphate buffer pH 7.4, ribose, 37 C, 16-24 hours; fluorescence ex 350 nm / em 400 nm
# Protocol: N-acetylglycyllysine methyl ester (DP in formula below) Ribose (R in formula below)
# 0.5M sodium phosphate buffer pH 7.4 N-acetylglycyllysine methyl ester in 0.5M sodium phosphate buffer, pH 7.4
# Test compounds dissolved in the above buffer and the pH is adjusted to 7.4, if necessary
# Reaction mixtures are prepared as follows:
# and incubated at 37 C for 16-24 hours. At the end of the incubation period, the fluroescence is read using an excitation wavelength of 350 nm and emission wavelenth of 400 nm. The inhibition of the cross-linking is calculated from the decrease in the fluorescence in the presence of the test compounds according to the formula:
# Inhibition (%)=100×[DPRC fluorescence-RC fluorescence]/DPR
row,IC50,Compound
1,0.597 mM,CC(C=NNc1ccccc1C(=O)OCCOP(=O)(O)O)=NNc1ccccc1C(=O)OCCOP(=O)(O)O [Methyl Glyoxal Bis-(2-Hydroxyethylphosphate-2-Hydrazinobenzoate) Hydrazone]
2,0.118 mM,CC(C=NNc1ccc(C(=O)O)cc1)=NNc1ccc(C(=O)O)cc1 [Methyl Glyoxal Bis-(4-Hydrazinobenzoic Acid) Hydrazone]
3,10 mM,CCOC(=O)c1ccccc1NN=CC(C)=NNc1ccccc1C(=O)OCC [Methyl Glyoxal Bis-(Diethyl 2-Hydrazinobenzoate) Hydrazone]
4,> 10 mM,COCCOCCOC(=O)c1ccccc1NN=CC(C)=NNc1ccccc1C(=O)OCCOCCOC [Methyl Glyoxal Bis-(Diethylene Glycol Methyl Ether 2-Hydrazinobenzoate) Hydrazone]
5,> 10 mM,COC(=O)c1ccccc1NN=CC(C)=NNc1ccccc1C(=O)OC [Methyl Glyoxal Bis-(Dimethyl 2-Hydrazinobenzoate)Hydrazone]
6,10 mM,COC(=O)c1ccc(NN=CC(C)=NNc2ccc(C(=O)OC)cc2)cc1 [Methyl Glyoxal Bis-(Dimethyl 4-Hydrazinobenzoate) Hydrazone]
7,> 10 mM,CC(C=NNc1ccccc1)=NNc1ccccc1 [Methyl Glyoxal Bis-(Phenylhydrazine) Hydrazone]
8,1.53 mM,CC(C=NNc1ccccc1C(=O)OCCOCCOCCO)=NNc1ccccc1C(=O)OCCOCCOCCO [Methyl Glyoxal Bis-(Triethylene Glycol 2-Hydrazinobenzoate) Hydrazone]
9,> 3 mM,"CC(C=NNc1ccccc1C(=O)OCC(O)CO)=NNc1ccccc1C(=O)OCC(O)CO (centres unmarked) [Methyl Glyoxal Bis-[1-(2,3-Dihydroxypropane)-2-Hydrazinobenzoate] Hydrazone]"
10,3 mM,CC(C=NNc1ccccc1C(=O)OCCO)=NNc1ccccc1C(=O)OCCO [Methyl Glyoxal Bis-[1-(2-Hydroxyethane)-2-Hydrazinobenzoate] Hydrazone]
11,1.24 mM,CC(C=NNc1ccccc1C(=O)OCc1ccncc1)=NNc1ccccc1C(=O)OCc1ccncc1 [Methyl Glyoxal Bis-[4-Methylpyridyl)-2-Hydrazinobenzoate] Hydrazone]
12,0.156 mM,CC(C=NNc1ccccc1C(=O)O)=NNc1ccccc1C(=O)O [Methylglyoxal Bis-(2-Hydrazinobenzoic Acid) Hydrazone]

row,Compound,IC50
1,CC(C=NNc1ccccc1C(=O)OCc1ccc([N+](=O)[O-])cc1)=NNc1ccccc1C(=O)OCc1ccc([N+](=O)[O-])cc1,10 mM
2,Methyl Glyoxal Bis-[(1-Hydroxymethyl-1-Acetoxy)-2-Hydrazinobenzoate] Hydrazone,0.764 mM

# System: fixed protein (gelatin, i.e., collagen) surface
# Assay: Surface browning experiment on gelatin/paper disks with glucose-6-phosphate
# Conditions: Peridex at a final concentration of 0.04% chlorhexidine, with 100 Mm glucose-6-phosphate, one week at 50° C.
# Protocol: To further study the ability of inhibitors of nonenzymatic browning to prevent the discoloration of protein on a surface, such as that which occurs on the tooth surface, the following surface browning experiment is performed. As a substitute for a pellicle-covered tooth surface, unexposed and developed photographic paper is used to provide a fixed protein (gelatin, i.e., collagen) surface on a paper backing. Five millimeter circles are punched and immersed for one week at 50° C. in a solution of 100 Mm glucose-6-phosphate in a 0.5M phosphate buffer, pH 7.4, containing 3 Mm sodium azide. Glucose-6-phosphate is a sugar capable of participating in nonenzymatic browning at a more rapid rate than glucose. In addition to the glucose-6-phosphate, chlorhexidine and/or a compound of Formula I are included. After incubation, the gelatin/paper disks are rinsed with water, observed for brown color, and photographed.
row,Compound,browning of the gelatin/paper disks
1,[H]/N=C(\N/C(=N/[H])NCCCCCCNC(=N)NC(=N)Nc1ccc(Cl)cc1)Nc1ccc(Cl)cc1 [chlorhexidine],significant browning
